Values quoted from earlier work, collected in paper PMC2750848 (Journal of medicinal chemistry, 2008).
Marks after values point to notes of the source that are not given here.

System: M. tuberculosis H37Rv

5′-O-[N-(salicyl)sulfamoyl]adenosine [Compound 4]
MIC99 (Fe-deficient) (Fe-deficient): 0.39 ^i µM
MIC99 (Fe-rich) (Fe-rich): 1.56 ^i µM
